According to patent publication US12043600B2, “Microbiocidal compounds” (SYNGENTA CROP PROTECTION AG, priority 2018, dated 2024):

How the values were obtained:
[1] = tested on: Glomerella lagenarium (Colletotrichum lagenarium); assay: Glomerella lagenarium (Colletotrichum lagenarium)/Liquid Culture (Anthracnose); format: cell-based; conditions: Colletotrichum orbiculare, liquid culture, compared to untreated control
[2] = tested on: Blumeria graminis f. sp. tritici (Erysiphe graminis f. sp. tritici); assay: Blumeria graminis f. sp. tritici/Wheat/Leaf Disc Preventative (Powdery Mildew on Wheat); format: in vivo; conditions: foliar, wheat leaf disc preventative, compared to untreated control
How it was run: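 Preventative leaf-disc test: percent disease control versus untreated leaf segments read 6-8 days post-application. Compound spray applied to wheat cv. Kanzler segments on agar one day before shaking infected plants over them; incubation at 20° C and 60% rh, 24 h darkness then 12 h light/12 h dark cycles.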

[3] = tested on: Phaeosphaeria nodorum (Septoria nodorum); assay: Phaeosphaeria nodorum (Septoria nodorum)/Wheat/Leaf Disc Preventative (Glume Blotch); format: in vivo; conditions: Parastagonospora nodorum, foliar, wheat leaf disc preventative, compared to untreated control
How it was run: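 Preventative test: compound spray first, then spore inoculation after 2 days on cv. Kanzler wheat leaf segments. Incubation in a climate cabinet at 20 °C and 75% rh under a 12 h light/12 h dark cycle. Activity rated as % control relative to untreated discs at 5–7 days post-application.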

[4] = tested on: Monographella nivalis (Microdochium nivale); assay: Monographella nivalis (Microdochium nivale)/Liquid Culture (Foot Rot Cereals); format: cell-based; conditions: liquid culture, compared to untreated control
How it was run: (§1)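 Liquid-culture format using potato dextrose broth inoculated directly with cryopreserved conidia, dosed with compound from a DMSO solution.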

[5] = tested on: Mycosphaerella arachidis (Cercospora arachidicola); assay: Mycosphaerella arachidis (Cercospora arachidicola)/Liquid Culture (Early Leaf Spot); format: cell-based; conditions: liquid culture, compared to untreated control
How it was run: as §1

Phytophthora infestans = assay: whole plant or invertebrate; format: in vivo; conditions: in Solanum lycopersicum, foliar, read-out: control of Phytophthora infestans
Plasmopara viticola = assay: whole plant or invertebrate; format: in vivo; conditions: foliar, read-out: control of Plasmopara viticola
[6] = tested on: Puccinia recondita f. sp. tritici; assay: Puccinia recondita f. sp. tritici/Wheat/Leaf Disc Curative (Brown Rust); format: in vivo; conditions: foliar, wheat leaf disc curative, compared to untreated control
How it was run: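 Formulated compound, diluted in water, is applied to inoculated wheat cv. Kanzler leaf segments on agar one day post-inoculation (pre-incubation dark, 19° C, 75% rh). After 6-8 days at 19° C, 75% rh and 12 h/12 h light, activity is rated as percent disease control relative to untreated segments.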

[7] = tested on: Puccinia recondita f. sp. tritici; assay: Puccinia recondita f. sp. tritici/Wheat/Leaf Disc Preventative (Brown Rust); format: in vivo; conditions: foliar, 200 ppm, wheat leaf disc preventative, compared to untreated control, read-out: control of Puccinia recondita f. sp. tritici
[8] = tested on: Magnaporthe grisea (Pyricularia oryzae); assay: whole plant or invertebrate; format: in vivo; conditions: foliar, read-out: control of Magnaporthe grisea
Pyrenophora teres = assay: Pyrenophora teres/Barley/Leaf Disc Preventative (Net Blotch); format: in vivo; conditions: foliar, 200 ppm, barley leaf disc preventative, compared to untreated control, read-out: control of Pyrenophora teres
Excerpt: Barley leaf segments cv. Hasso are placed on agar in a multiwell plate (24-well format) and sprayed with the formulated test compound diluted in water. The leaf segments are inoculated with a spore suspension of the fungus 2 days after application. […] The data are presented as the percentage of disease control of each compound for the biological tests against G. lagenarium (Example B3), P. recondita preventative (Example B13), P. teres (Example B15) and M. graminicola (Example B19) as described above. The testing rates of each biological test is specifically described in table C1 below.

[9] = tested on: Mycosphaerella graminicola (Septoria tritici); assay: Mycosphaerella graminicola (Septoria tritici)/Liquid Culture (Septoria Blotch); format: cell-based; conditions: Zymoseptoria tritici; 20 ppm; liquid culture; compared to untreated control
How it was run: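 Results given as % disease control: test compound in DMSO was placed in wells first, then potato dextrose broth carrying cryostored fungal conidia was added.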

CO/C=C(\Oc1cc(-n2ccc(C3CCCCC3)n2)c(F)cc1C)C(=O)OC [Compound E-114, methyl (Z)-2-[5-(3-cyclohexylpyrazol-1-yl)-4-fluoro-2-methyl-phenoxy]-3-methoxy-prop-2-enoate]
inhibition of growth at 20 ppm [1]: ≥ 80% | pest or weed control at 200 ppm [2]: ≥ 80% | pest or weed control at 200 ppm [3]: ≥ 80% | inhibition of growth at 20 ppm [4]: ≥ 80% | inhibition of growth at 20 ppm [5]: ≥ 80% | pest or weed control at 200 ppm (Phytophthora infestans): ≥ 80% | pest or weed control at 200 ppm (Plasmopara viticola): ≥ 80% | pest or weed control at 200 ppm [6]: ≥ 80% | pest or weed control at 200 ppm [7]: ≥ 80% | pest or weed control at 200 ppm [8]: ≥ 80% | pest or weed control at 200 ppm (Pyrenophora teres): ≥ 80% | inhibition of growth at 20 ppm [9]: ≥ 80%

CO/C=C(\Oc1cc(-n2cc(Cl)c(C3CCCCC3)n2)ccc1C)C(=O)OC [Compound E-112, methyl (Z)-2-[5-(4-chloro-3-cyclohexyl-pyrazol-1-yl)-2-methyl-phenoxy]-3-methoxy-prop-2-enoate]
inhibition of growth at 20 ppm [1]: ≥ 80% | pest or weed control at 200 ppm [3]: ≥ 80% | inhibition of growth at 20 ppm [4]: ≥ 80% | inhibition of growth at 20 ppm [5]: ≥ 80% | pest or weed control at 200 ppm (Plasmopara viticola): ≥ 80% | pest or weed control at 200 ppm [6]: ≥ 80% | pest or weed control at 200 ppm [8]: ≥ 80% | pest or weed control at 200 ppm (Pyrenophora teres): ≥ 80% | melting point: 150 to 152 °C

CCON=C(C)c1cnn(-c2ccc(C)c(O/C(=C\OC)C(=O)OC)c2)n1 [Compound F-12, methyl (Z)-2-[5-[4-(N-ethoxy-C-methyl-carbonimidoyl)triazol-2-yl]-2-methyl-phenoxy]-3-methoxy-prop-2-enoate]
inhibition of growth at 20 ppm [1]: ≥ 80% | pest or weed control at 200 ppm [2]: ≥ 80% | pest or weed control at 200 ppm [3]: ≥ 80% | inhibition of growth at 20 ppm [4]: ≥ 80% | inhibition of growth at 20 ppm [5]: ≥ 80% | pest or weed control at 200 ppm (Phytophthora infestans): ≥ 80% | pest or weed control at 200 ppm (Plasmopara viticola): ≥ 80% | pest or weed control at 200 ppm [6]: ≥ 80% | pest or weed control at 200 ppm [7]: ≥ 80% | pest or weed control at 200 ppm [8]: ≥ 80% | pest or weed control at 200 ppm (Pyrenophora teres): ≥ 80% | inhibition of growth at 20 ppm [9]: ≥ 80% | melting point: 113 to 116 °C

C=C(C)c1cnn(-c2ccc(C)c(O/C(=C\OC)C(=O)OC)c2)n1 [Compound F-11, methyl (Z)-2-[5-(4-isopropenyltriazol-2-yl)-2-methyl-phenoxy]-3-methoxy-prop-2-enoate]
inhibition of growth at 20 ppm [1]: ≥ 80% | pest or weed control at 200 ppm [2]: ≥ 80% | pest or weed control at 200 ppm [3]: ≥ 80% | inhibition of growth at 20 ppm [4]: ≥ 80% | inhibition of growth at 20 ppm [5]: ≥ 80% | pest or weed control at 200 ppm (Phytophthora infestans): ≥ 80% | pest or weed control at 200 ppm (Plasmopara viticola): ≥ 80% | pest or weed control at 200 ppm [6]: ≥ 80% | pest or weed control at 200 ppm [7]: ≥ 80% | pest or weed control at 200 ppm [8]: ≥ 80% | pest or weed control at 200 ppm (Pyrenophora teres): ≥ 80% | inhibition of growth at 20 ppm [9]: ≥ 80%

CO/C=C(\Oc1cc(-n2ccc(C(F)(F)Cl)n2)ccc1C)C(=O)OC [Compound E-118, methyl (Z)-2-[5-[3-[chloro(difluoro)methyl]pyrazol-1-yl]-2-methyl-phenoxy]-3-methoxy-prop-2-enoate]
inhibition of growth at 20 ppm [1]: ≥ 80% | pest or weed control at 200 ppm [2]: ≥ 80% | pest or weed control at 200 ppm [3]: ≥ 80% | inhibition of growth at 20 ppm [4]: ≥ 80% | inhibition of growth at 20 ppm [5]: ≥ 80% | pest or weed control at 200 ppm (Phytophthora infestans): ≥ 80% | pest or weed control at 200 ppm (Plasmopara viticola): ≥ 80% | pest or weed control at 200 ppm [6]: ≥ 80% | pest or weed control at 200 ppm [7]: ≥ 80% | pest or weed control at 200 ppm [8]: ≥ 80% | pest or weed control at 200 ppm (Pyrenophora teres): ≥ 80% | inhibition of growth at 20 ppm [9]: ≥ 80% | melting point: 146 to 148 °C
